Measured values taken from US20200031811A1, “SUBSTITUTED MONO- AND POLYAZANAPHTHALENE DERIVATIVES AND THEIR USE” (Basilea Pharmaceutica International AG, priority 2015, published 2020).
Counter-ions that a name gives are not always drawn.

Assays:
MNK1 = target: T1, MNK1 (Homo sapiens, UniProt Q9BUB5); experiment: MNK inhibition assay (Z-Lyte kinase assay, Ser/Thr 7 peptide); assay type: biochemical; conditions: for IC50: recombinant GST-MNK1, 3 hours at 31° C.; for inhibition at 1 µM / inhibition at 10 µM: read-out: Inhibition of MNK1 activity at indicated concentration
T1 construct: purchased Life Technologies or Carna Biosciences PV6023 or 02-145; host or cells: baculovirus infected insect cells
T1 sequence (Q9BUB5 whole entry): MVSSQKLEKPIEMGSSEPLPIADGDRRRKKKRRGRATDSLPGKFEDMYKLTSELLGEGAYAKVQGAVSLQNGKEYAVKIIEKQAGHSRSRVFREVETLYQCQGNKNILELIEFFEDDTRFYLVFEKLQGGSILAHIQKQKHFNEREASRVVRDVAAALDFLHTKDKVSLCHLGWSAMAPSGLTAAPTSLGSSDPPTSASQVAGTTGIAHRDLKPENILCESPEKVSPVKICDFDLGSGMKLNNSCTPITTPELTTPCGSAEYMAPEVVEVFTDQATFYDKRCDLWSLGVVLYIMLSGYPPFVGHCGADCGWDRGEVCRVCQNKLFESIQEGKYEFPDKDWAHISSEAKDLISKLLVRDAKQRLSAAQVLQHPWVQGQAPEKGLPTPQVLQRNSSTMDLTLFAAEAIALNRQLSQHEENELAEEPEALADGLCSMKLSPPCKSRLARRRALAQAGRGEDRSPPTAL
From the text: For the measurement of the activity of the MNK1 kinase the Z-Lyte kinase assay system was used. The kinase activity of MNK1 can be quantified with the Z-Lyte kinase assay kit Ser/Thr 7 peptide (Life Technologies PV3180). The kit was utilized according to the instructions of the provider. A recombinant GST-MNK1 fusion protein produced in and purified from baculovirus infected insect cells was used as enzyme source (GST-MNK1 Life Technologies PV6023 or Carna Biosciences 02-145). It was verified that both sources of the MNK1 enzyme gave similar IC50 values with several compounds. The MNK1 enzyme assay was performed in 384 well round bottom black microtiter plates (Corning 3676). The kinase reaction was performed for 3 hours at 31° C. As instructed by the provider of the kit the amount of enzyme was chosen such that ˜30% of the substrate peptide was phosphorylated in control wells containing buffer only. The MNK1 inhibiting activity of compounds was tested by adding the compounds to the kinase reaction at a concentration of 10000, 5000, 2000, 1000, 500, 200, 100, 50 nM. Compounds with strong MNK1 inhibition were tested at 20, 10, 5, 2, 1 and 0.5 nM in addition. Each compound concentration was tested at least in duplicate. The % phosphorylation of the substrate peptide at each compound concentration was calculated as described in the assay manual. The fluorescent signals were recordes on Biotek Cytation 3 microplate reader. The IC50, the concentration that reduced substrate phosphorylation by 50% if compared to buffer only wells, was calculated with the Grafit 6 software (Erythacus software).

[1] = system: human pancreatic cancer cell line MiaPaCa2 (ATCC CRL-1420); experiment: Cell growth assay (CellTiterGlo, 72 hours); assay type: cell-based; conditions: for IC50: MIA PaCa-2, MiaPaCa2 cells, 72 hours, read-out: IC50 MiaPaCa; for inhibition at 100 µM: MIA PaCa-2, at 100 μM; for inhibition at 100 µM / inhibition at 50 µM: read-out: Inhibition of MiaPaCa growth at indicated concentration; for inhibition at 50 µM: MIA PaCa-2, at 50 μM
Method: The inhibition of cell growth by the compounds was tested by exposing the human pancreatic cancer cell line MiaPaCa2 (ATCC CRL-1420) to the compounds. The assay was performed in 384 well clear bottom white microtiter plates (Greiner #781098). Each well was seeded with 10^3 cells in 20 μl of Dulbecco's modified Eagle's medium (Sigma D6796) supplied with 10% fetal calf scrum (Sigma F7524), 2.5% horse serum (Sigma H0146), 1% Penicillin-Streptomycin (Sigma P0781), 1% MEM nonessential amino acid solution 100× (Sigma M71459) and 1% 200 mM L-Glutamine (Sigma G7513) culture medium. After overnight incubation at 37° C. in 5% CO2 the compounds were added in the following concentrations: 100, 50, 20, 10, 5, 2, 1, 0.5, 0.2 and 0.1 μM. Each compound concentration was tested in quadruplicate. The incubation was then continued for 72 hours. After 72 hours the growth of the cells was assessed by the addition of the CellTiterGlo reagent (Promega G9242) as instructed by the provider. The luminescent signal was recorded on a SpectraMax M2 microplate reader. The signal obtained in wells containing cells cultivated in the absence of compound was set to 100% growth after subtracting the signal obtained in medium only wells. The % growth in each well was calculated by subtracting the medium only value and dividing through the 100% growth value. The IC50 for cell growth, the concentration of compound at which cell growth was reduced to 50%, was calculated with the GraFit6 software (Erythacus software).

Row | Compound | IC50 (MNK1) | IC50 [1] | other results
1 | NC1CCN(Cc2ccc3cncc(-c4cc5ccccc5o4)c3c2)CC1 [Example 1, 1-[[4-(Benzofuran-2-yl)-6-isoquinolyl]methyl]piperidin-4-amine] | 110 nM | 3540 nM | –
2 | Nc1ccc(-c2cncc3ccc(CN4CCC(N)CC4)cc23)cc1 [Example 2] | 93 nM | 34600 nM | –
3 | Nc1cccc(-c2cncc3ccc(CN4CCC(N)CC4)cc23)c1 [Example 3] | 847 nM | 20600 nM | –
4 | N#Cc1ccc(-c2cncc3ccc(CN4CCC(N)CC4)cc23)cc1 [Example 4] | 334 nM | 26000 nM | –
5 | N#Cc1cccc(-c2cncc3ccc(CN4CCC(N)CC4)cc23)c1 [Example 5] | – | 32600 nM | inhibition at 1 µM (MNK1): 39%
6 | NC1CCN(Cc2ccc3cncc(-c4cc5ccccc5[nH]4)c3c2)CC1 [Example 6] | 917 nM | 6050 nM | –
7 | NC1CCN(Cc2ccc3cncc(-c4ccccc4)c3c2)CC1 [Example 7] | 744 nM | 17500 nM | –
8 | N#Cc1ccccc1-c1cncc2ccc(CN3CCC(N)CC3)cc12 [Example 8] | – | – | inhibition at 10 µM (MNK1): 95%
9 | NC1CCN(Cc2ccc3cncc(-c4ccc(Cl)cc4)c3c2)CC1 [Example 9] | 258 nM | 10800 nM | –
10 | NC1CCN(Cc2ccc3cncc(-c4cccc(Cl)c4)c3c2)CC1 [Example 10] | 325 nM | 11700 nM | –
11 | COC(=O)c1ccc(-c2cncc3ccc(CN4CCC(N)CC4)cc23)cc1 [Example 11] | – | 10100 nM | inhibition at 1 µM (MNK1): 33%
12 | COC(=O)c1cccc(-c2cncc3ccc(CN4CCC(N)CC4)cc23)c1 [Example 12] | – | – | inhibition at 10 µM (MNK1): 92%; inhibition at 100 µM [1]: 60%
13 | NC1CCN(Cc2ccc3cncc(-c4ccncc4)c3c2)CC1 [Example 13] | 285 nM | 24300 nM | –
14 | NC1CCN(Cc2ccc3cncc(-c4cccnc4)c3c2)CC1 [Example 14] | – | – | inhibition at 1 µM (MNK1): 34%; inhibition at 50 µM [1]: 52%
15 | NC1CCN(Cc2ccc3cncc(-c4ccccn4)c3c2)CC1 [Example 15] | 3960 nM | – | –
16 | Nc1cc(-c2cncc3ccc(CN4CCC(N)CC4)cc23)ccn1 [Example 16] | 1910 nM | – | inhibition at 100 µM [1]: 67%
17 | Nc1ccc(-c2cncc3ccc(CN4CCC(N)CC4)cc23)cn1 [Example 17] | – | – | inhibition at 10 µM (MNK1): 100%; inhibition at 50 µM [1]: 61%
18 | CC(=O)Nc1ccc(-c2cncc3ccc(CN4CCC(N)CC4)cc23)cc1 [Example 18, N-[4-[6-[(4-Amino-1-piperidyl)methyl]-4-isoquinolyl]phenyl]acetamide] | 459 nM | 30400 nM | –
19 | CC(=O)Nc1cccc(-c2cncc3ccc(CN4CCC(N)CC4)cc23)c1 [Example 19] | – | 29700 nM | inhibition at 1 µM (MNK1): 39%
20 | NC(=O)c1ccc(-c2cncc3ccc(CN4CCC(N)CC4)cc23)cc1 [Example 20, 4-[6-[(4-Amino-1-piperidyl)methyl]-4-isoquinolyl]benzamide] | – | – | inhibition at 1 µM (MNK1): 45%; inhibition at 100 µM [1]: 62%
21 | NC(=O)c1cccc(-c2cncc3ccc(CN4CCC(N)CC4)cc23)c1 [Example 21] | – | – | inhibition at 1 µM (MNK1): 49%; inhibition at 100 µM [1]: 64%
22 | O=C1CN(Cc2ccc3cncc(-c4ccc(O)cc4)c3c2)CCN1 [Example 22, 4-[[4-(4-Hydroxyphenyl)-6-isoquinolyl]methyl]piperazin-2-one] | 662 nM | – | inhibition at 100 µM [1]: 69%
23 | Oc1ccc(-c2cncc3ccc(CN4CCC(O)CC4)cc23)cc1 [Example 23] | 2360 nM | 30600 nM | –
24 | NCCNCc1ccc2cncc(-c3ccc(O)cc3)c2c1 [Example 24] | 926 nM | 45500 nM | –
25 | NCCCNCc1ccc2cncc(-c3ccc(O)cc3)c2c1 [Example 25] | 166 nM | 14600 nM | –

Row | Compound | IC50 (MNK1) | IC50 [1] | other results
26 | Oc1ccc(-c2cncc3ccc(CN4CCOCC4)cc23)cc1 [Example 26] | – | 54300 nM | inhibition at 1 µM (MNK1): 40%
27 | NC1CCN(C(=O)c2ccc3cncc(-c4ccc(O)cc4)c3c2)CC1 [Example 28, (4-Amino-1-piperidyl)-[4-(4-hydroxyphenyl)-6-isoquinolyl]methanone] | 353 nM | 47600 nM | –
28 | NC1CCN(Cc2ccc3cncc(-c4ccc(C(=O)O)cc4)c3c2)CC1 [Example 29, 4-[6-[(4-Amino-1-piperidyl)methyl]-4-isoquinolyl]benzoic acid] | – | – | inhibition at 1 µM (MNK1): 43%
29 | NC1CCN(Cc2ccc3cncc(-c4cccc(C(=O)O)c4)c3c2)CC1 [Example 30] | – | – | inhibition at 1 µM (MNK1): 34%
30 | NC1CCN(Cc2ccc3cncc(-c4ccc(NC(=O)Nc5ccccc5)cc4)c3c2)CC1 [Example 31, 1-[4-[6-[(4-Amino-1-piperidyl)methyl]-4-isoquinolyl]phenyl]-3-phenyl-urea] | 484 nM | 2190 nM | –
31 | NC1CCN(Cc2ccc3cncc(-c4cccc(NC(=O)Nc5ccccc5)c4)c3c2)CC1 [Example 32] | 2410 nM | 8400 nM | –
32 | NC(=O)Nc1ccc(-c2cncc3ccc(CN4CCC(N)CC4)cc23)cc1 [Example 33, [4-[6-[(4-Amino-1-piperidyl)methyl]-4-isoquinolyl]phenyl]urea] | 866 nM | – | –
33 | NC(=O)Nc1cccc(-c2cncc3ccc(CN4CCC(N)CC4)cc23)c1 [Example 34] | 1090 nM | – | –
34 | NCCCCNCc1ccc2cncc(-c3ccc(O)cc3)c2c1 [Example 35, 4-[6-[(4-Aminobutylamino)methyl]-4-isoquinolyl]phenol] | – | 11800 nM | inhibition at 1 µM (MNK1): 56%
35 | CN(CCCN)Cc1ccc2cncc(-c3ccc(O)cc3)c2c1 [Example 36] | 99 nM | 20200 nM | –
36 | NC1CCC(NCc2ccc3cncc(-c4ccc(O)cc4)c3c2)CC1 (stereo not drawn) [Example 37] | 336 nM | – | inhibition at 50 µM [1]: 57%
37 | NC1CCCC(NCc2ccc3cncc(-c4ccc(O)cc4)c3c2)C1 (stereo not drawn) [Example 38] | 351 nM | 25000 nM | –
38 | Oc1ccc(-c2cncc3ccc(CNC4CCCNC4)cc23)cc1 (stereo not drawn) [Example 39] | 496 nM | – | –
39 | c1cncc(NCc2ccc3cncc(-c4cc5ccccc5o4)c3c2)c1 [Example 60, N-[[4-(Benzofuran-2-yl)-6-isoquinolyl]methyl]pyridin-3-amine] | 135 nM | – | –
40 | Clc1cc(NCc2ccc3cncc(-c4cc5ccccc5o4)c3c2)ccn1 [Example 62] | 2140 nM | – | –
41 | Fc1cc(NCc2ccc3cncc(-c4cc5ccccc5o4)c3c2)ccn1 [Example 63] | 68 nM | – | –
42 | COc1cc(NCc2ccc3cncc(-c4cc5ccccc5o4)c3c2)ccn1 [Example 65] | 157 nM | – | –
43 | N[C@H]1CC[C@@H](Nc2ccc3cncc(-c4cc5ccccc5o4)c3c2)CC1 [Example 81, N4-[4-(Benzofuran-2-yl)-6-isoquinolyl]cyclohexane-1,4-diamine] | – | 2210 nM | –
44 | c1ccc2oc(-c3cncc4ccc(NC5CCNCC5)cc34)cc2c1 [Example 82] | – | 2170 nM | –
45 | N[C@H]1CC[C@H](Nc2ccc3c(=O)[nH]cc(-c4ccccc4)c3c2)CC1 [Example 88] | 171 nM | – | –
46 | O=c1[nH]cc(-c2cc3ccccc3o2)c2cc(NCc3ccncc3)ccc12 [Example 89, 4-(Benzofuran-2-yl)-6-(4-pyridylmethylamino)-2H-isoquinolin-1-one] | – | – | inhibition at 10 µM (MNK1): 35%
47 | O=c1[nH]cc(-c2ccccc2)c2cc(NCc3ccncc3)ccc12 [Example 90] | 1060 nM | – | –
48 | c1ccc2oc(-c3cncc4ccc(CNc5ccnnc5)cc34)cc2c1 [Example 131, N-[[4-(benzofuran-2-yl)-6-isoquinolyl]methyl]pyridazin-4-amine] | 24 nM | – | –
49 | Nc1cc[n+](Cc2ccc3cnc(N)c(-c4cc5ccccc5o4)c3c2)cc1 [Example 166, 6-[(4-Aminopyridin-1-ium-1-yl)methyl]-4-(benzofuran-2-yl)isoquinolin-3-amine trifluoroacetate] | 57 nM | – | –
50 | Nc1ncc(-c2cc3ccccc3o2)c2cc(O[C@H]3CC[C@H](N)CC3)cc(Cl)c12 [Example 320] | 94 nM | – | –
